In patent US5468727A, “Methods of normalizing metabolic parameters in diabetics” (Board of Regents, The University of Texas System, priority 1993, dated 1995):

Legend:
[1] = system: subjects with early NIDDM; experiment: Gastric emptying study (gamma camera, 99mTc-SC glucose solution) with CCK-8 infusion; assay type: in vivo, human
Excerpt: Seven subjects with early NIDDM (diagnosed for less than 2 years) underwent two separate gastric emptying studies. Subjects were five men and two women ranging in age from 33 to 49 and previously diagnosed as diabetic according to current WHO criteria using a 75 g glucose tolerance test (OGTT) with blood sampled fasting and at 2 hr. All patients had been on oral hypoglycemic medication which was discontinued the evening prior to the study. All studies were begun between 7-8 am following a 12 hour fast.
An 18 gauge angiocatheter was placed in one antecubital fossa for blood drawing while another 18 gauge angiocatheter was placed in the other antecubital fossa for a 0.9% (normal saline) infusion ([…]). Gastric emptying studies utilizing a gamma camera (Scintronix USA, Inc., Woburn Mass.) were performed with a modified 0.62M (50 g glucose in 450 ml water) glucose solution. This solution has been used previously in gastric emptying studies (Schwartz, et al., 1990). […]
The subjects were then seated at a 90 degree angle in front of a gamma camera. […] Counts in the stomach region of interest were calculated in each 60 second image. After correcting for radioactive decay, the count rates were converted to a percentage of the maximum count rate recorded. […]

[2] = system: subjects with early NIDDM; experiment: Plasma glucose after glucose solution with CCK-8 infusion; assay type: in vivo, human; settings: iv CCK-8 infusion
Experimental: (§1) Blood samples were drawn from the indwelling 18 gauge angiocatheter in the antecubital fossa at 15 min intervals beginning just prior to ingestion of the glucose solution and ending at 120 min. Blood for glucose evaluation was collected in grey-top vacutainer tubes containing potassium oxalate and sodium fluoride. Blood for insulin and C-peptide was collected in red top tubes. Samples for hemoglobin A-1-C, gastric inhibitory polypeptide (GIP) and CCK were collected in lavender top tubes containing EDTA. All glass tubes were from Becton Dickinson Vacutainer Systems, Rutherford, N.J. Glucose analysis were performed on a Paramax instrument (Baxter Healthcare Corp., Irvine, Calif.). Hemoglobin A1C was performed by the micro column test (Bio-Rad, Hercules, Calif. 94547).
(§2) The second study was performed 3 days later. Subjects drank the glucose solution and a gastric emptying study was performed with simultaneous infusion of CCK (Kinevac™, Squibb Diagnostics Princeton, N.J. 08543) at 48 pM/kg/hr.
Infusions of the saline solution for the first test and the CCK solution for the second test were begun 10 min prior to ingestion of the glucose solution.

[3] = system: subjects with early NIDDM; experiment: Plasma GIP by radioimmunoassay with CCK-8 infusion; assay type: in vivo, human; settings: iv CCK-8 infusion; without CCK-8 420.4 pg/ml; P=0.0032
Experimental: as §1
(§3) The C-peptide assay was performed by Smith Kline Bioscience Laboratories, Van Nuys, Calif. by radioimmunoassay (Diagnostic Products, Los Angeles, Calif. 90045). The assay for insulin was performed by Smith Kline Bioscience Laboratory, St. Louis, Mo. by radioimmunoassay (Pharmacia Diagnostics, Fairfield, N.J. 07004). Assays for GIP and CCK were performed by radioimmunoassay by the Gastroenterology Unit at Mayo Clinic (Rochester, Minn. 55905) using in-house kits.
(§4) The second study was performed 3 days later. […]

[4] = system: subjects with early NIDDM; experiment: Serum insulin by radioimmunoassay with CCK-8 infusion; assay type: in vivo, human; settings: iv CCK-8 infusion
Experimental: as §1, §3, §4

[5] = Plasma CCK by radioimmunoassay with CCK-8 infusion; assay type: in vivo, human; settings: during iv CCK-8 infusion; without CCK-8 20.8 pmol/L; P=0.0247
Experimental: as §1, §3, §4

[6] = system: subjects with early NIDDM; experiment: Adverse effects during CCK-8 infusion; assay type: in vivo, human; settings: iv CCK-8 infusion, 2 hr
Experimental: as §2
None of the subjects reported any nausea or abdominal distress during the CCK-8 infusions.

[7] = system: obese diabetic Zucker rats; experiment: Gastric emptying by gamma scintigraphy with camostat, diabetic rats; assay type: in vivo; settings: diabetic Zucker rats 10 wks old, 1% camostat in 30% glucose solution by gavage; without 38.4±18 min
Experimental: (§5) Eight male obese Zucker rats of a strain that becomes diabetic by 10 wks of age and 8 matched lean Zucker rats as controls were studied. After overnight fast, rats 10 wks old were fed by gavage a 30% glucose solution ([…] body weight) containing 150 μCi of ^99m Tc-SC. Each rat was tested with and without 1% camostat, a trypsin inhibitor known to stimulate CCK release, in the glucose solution. Gastric emptying was monitored by gamma scintigraphy at 10 min intervals. Fasting and 1 hr postprandial plasma glucose were determined.

[8] = system: lean Zucker rats; experiment: Gastric emptying by gamma scintigraphy with camostat, lean rats; assay type: in vivo; settings: lean Zucker rats 10 wks old, 1% camostat in 30% glucose solution by gavage; without 65.1±5.7 min
Experimental: as §5

[9] = system: obese diabetic Zucker rats; experiment: Fasting and 1 hr postprandial plasma glucose with camostat, diabetic rats; assay type: in vivo; settings: fasting to 1 hr postprandial, 1% camostat in 30% glucose solution, without Camostat 270-±18 mg/dl
Experimental: as §5

Row | SMILES | gastric half-emptying time ([1]; average, 7 early NIDDM subjects, iv CCK infusion 48 pM/kg/hr, 50 g glucose in 450 ml, without CCK-8 40.9 min, P=0.0042) [min] | average area under the gastric emptying curve during the 2-hr period, relative to the same patients not receiving CCK-8 ([1]; iv CCK-8 infusion, early NIDDM subjects, 2 hr) [%] | average glucose excursion value during the 2-hr period, relative to saline infusion ([2]; 2 hr) [%] | average glucose excursion value during the 2-hr period ([2]; saline 5.6 mmol/liter, P=0.0550) [mmol/L] | average glucose concentration during the 2-hr period following the glucose meal ([2]; saline infusion 17.1, P=0.0073) [mmol/L] | average GIP excursion over the 2 hr period [3] [pg/mL] | average insulin concentration over the 2 hr period, relative to saline infusion ([4]; not statistically significant) [%] | average insulin concentration over the 2 hr period ([4]; without CCK-8 44.2 μU/ml, P=0.1480) [μU/ml] | average plasma CCK-8 excursion [5] [pmol/L] | adverse effects (nausea, abdominal distress) during infusion [6] | gastric half-emptying time [7] [min] | gastric half-emptying time [8] [min] | incremental increase in plasma glucose [9] [mg/dL]
1 | CSCC[C@H](NC(=O)[C@H](Cc1ccc(OS(=O)(=O)O)cc1)NC(=O)[C@@H](N)CC(=O)O)C(=O)NCC(=O)N[C@@H](Cc1c[nH]c2ccccc12)C(=O)N[C@@H](CCSC)C(=O)N[C@@H](CC(=O)O)C(=O)N[C@@H](Cc1ccccc1)C(N)=O [CCK-8, Cholecystokinin-octapeptide] | 94.2 | 175 | 66 | 3.7 | 14.0 | 266.4 | 68 | 30.2 | 49.6 | No adverse effects were reported or observed |  |  | 
2 | CN(C)C(=O)COC(=O)Cc1ccc(OC(=O)c2ccc(NC(=N)N)cc2)cc1 [Camostat] |  |  |  |  |  |  |  |  |  |  | 141 ± 33 | 167 ± 25 | 160 ± 15
